Test system: rabbit heart
Test: Rabbit heart Langendorff, simultaneous optical mapping and epicardial electrode-grid mapping of repolarization duration
Settings: after 20 uM addition of pinacidil to the perfusate
Procedure: A study was performed to adapt a rabbit heart Langendorff optical mapping model^42 to add the recording of electrical EGMs to a commercially-available electrode array lab (Advisor […] catheter, Abbott Laboratories), after its use in the clinical laboratory for animal use. This involved using a UHN research mapping system in which unipolar EGMs from a 16-electrode grid were used to record cardiac signals with a proprietary mapping system (described previously as UHN Cartesian Mapping System^43) at a sampling rate of 1 kHz. This electrode array was chosen as spacing between the splines allowed recording of the fluorescence from the voltage-sensitive dye RH237. Fluorescence was recorded with a high-speed CMOS camera (Ultima-L, SciMedia, Costa Mesa, CA) at a rate of 500 frames/s. […] A derivative of the vectorcardiogram was obtained by projecting the repolarization loop along its maximum axis where the projection may be called a loop optimized rEGM (i.e., which is a type of repolarization-optimized EGM that in this case is determined using the loop method described with respect to FIG. 5C). A measurement of repolarization duration, called APD^v, was measured from the onset of QRS to baseline return of the loop rEGM. It was hypothesized that rEGM provides vector-derived integrated action potential duration (APD^v) that correlates with local repolarization assessed by optical mapping. […]

SMILES: CC(N/C(=N\C#N)Nc1ccncc1)C(C)(C)C (centres unmarked) [Pinacidil, pinacidil]
- APD (optical APD90 from fluorescence) (baseline APD90 151 ms): 89 ms
- ARI (repolarization duration from loop rEGM) (baseline APD^v average 142 ms): 68 ms

— patent US20240197236A1, “ELECTRO-ANATOMIC CARDIAC REPOLARIZATION MAPPING” (University Health Network, priority 2022, published 2024)
